For one test, the system named is E. coli UB1005 C498. As to the kind of experiment: MIC microtitre broth dilution, E. coli. The settings on record: E. coli UB1005 C498 wt Gram−, 24 h. The test is classed as cell-based. Here is the method:
(§1) MIC assays were conducted essentially as described by Amsterdam, D 1996, “Susceptibility testing of antimicrobials in liquid media”, p. 52-111, in Loman, V, ed. Antibiotics in laboratory medicine, 4th ed Williams and Wilkins, Baltimore, Md.
For orientation: In broth dilution the organism is exposed to a series of concentrations in liquid medium.

In a further test the test system is S. aureus ATCC25923 C622. As to the kind of experiment: MIC microtitre broth dilution, S. aureus. The test is classed as cell-based. The settings on record: S. aureus ATCC25923 C622 wt Gram+, 24 h. The protocol:
as §1

For another test, the system named is S. pyogenes C721. As to the kind of experiment: MIC microtitre broth dilution, S. pyogenes. The test is classed as cell-based. Particulars: S. pyogenes C721 wt Gram+, Todd Hewitt broth. The protocol:
as §1

Test [1] concerns P. aeruginosa PAE/K799 H187. The test is described as follows: MIC microtitre broth dilution, P. aeruginosa. The test is classed as cell-based. The settings on record: P. aeruginosa PAE/K799 H187 wt Gram−, 24 h. The protocol:
as §1

In another test the test system is S. epidermidis C621. As to the kind of experiment: MIC microtitre broth dilution, S. epidermidis. The test is classed as cell-based. Particulars: S. epidermidis C621 wt Gram+, 24 h. The protocol: as §1
The test system of test [2] is K. pneumoniae ATCC13883 C238. As to the kind of experiment: MIC microtitre broth dilution, K. pneumoniae. The test is classed as cell-based. The settings on record: K. pneumoniae ATCC13883 C238 wt Gram−, 24 h. Here is the method:
as §1

For test [3], the system named is nitric oxide production by macrophages (murine macrophage cell line RAW 264.7). As to the kind of experiment: Nitric oxide production by macrophages. The test is classed as cell-based.
The test system of test [4] is MCP-1 production by THP-1 cells. As to the kind of experiment: MCP-1 production by macrophages. The test is classed as cell-based, human. The settings on record: THP-1 cells stimulated with opsonized zymosan, 24 hours, read-out: IC50 MCP-1 production. Here is the method: The human macrophage cell line, THP-1 was plated in a 12 well plate such that each well contains 1×10^6 cells in 2 ml of media containing 10% FCS. Opsonized zymosan was prepared by resuspending 20 mg of zymosan A in 2 ml of ddH2O and homogenizing until a uniform suspension was obtained. Homogenized zymosan was pelleted at 250 g and resuspended in 4 ml of human serum for a final concentration of 5 mg/ml and incubated in a 37° C. water bath for 20 minutes to enable opsonization. Geldanamycin was prepared in DMSO at a concentration of 10^−2 M and serially diluted 10-fold to give a range of stock concentrations (10^−8 M to 10^−2 M).
THP-1 cells were stimulated to produce MCP-1 by the addition of 1 mg/ml opsonized zymosan. […] was added to THP-1 cells by directly adding DMSO stock solutions, prepared earlier, at a 1/1000 dilution, to each well. Each drug concentration was tested in triplicate wells. Plates were incubated at 37° C. for 24 hours.
After a 24-hour stimulation, supernatants were collected to quantify MCP-1 production. MCP-1 concentrations in the supernatants were determined by ELISA using recombinant human MCP-1 to obtain a standard curve. A 96-well MaxiSorb plate was coated with 100 μL of anti-human MCP-1 Capture Antibody diluted in Coating Buffer (0.1M sodium carbonate pH 9.5) overnight at 4° C. The dilution of Capture Antibody used was lot-specific and was determined empirically. Capture antibody was then aspirated and the plate washed 3 times with Wash Buffer (PBS, 0.05% TWEEN-20). Plates were blocked for 1 hour at room temperature with 200 μL/well of Assay Diluent (PBS, 10% FCS pH 7.0). After blocking, plates were washed 3 times with Wash Buffer. […] Sample supernatants and standards were assayed in triplicate and were incubated at room temperature for 2 hours after addition to the plate coated with Capture Antibody. The plates were washed 5 times and incubated with 100 μL of Working Detector (biotinylated anti-human MCP-1 detection antibody+avidin-HRP) for 1 hour at room temperature. Following this incubation, the plates were washed 7 times and 100 μL of Substrate Solution (tetramethylbenzidine, H2O2) was added to plates and incubated for 30 minutes at room temperature. […] Mean absorbance was determined from triplicate data readings and the mean background was subtracted. MCP-1 concentration values were obtained from the standard curve.

For test [5], the system named is TNFα production by THP-1 cells. As to the kind of experiment: TNF-alpha production by macrophages. The settings on record: THP-1 cells stimulated with opsonized zymosan, 24 hours; read-out: IC50 TNFα production. The test is classed as cell-based, human. The protocol:
The human macrophage cell line, THP-1 was plated in a 12-well plate such that each well contains 1×10^6 cells in 2 ml of media containing 10% FCS. Opsonized zymosan was prepared by resuspending 20 mg of zymosan A in 2 ml of ddH2O and homogenizing until a uniform suspension was obtained. Homogenized zymosan was pelleted at 250 g and resuspended in 4 ml of human serum for a final concentration of 5 mg/ml and incubated in a 37° C. water bath for 20 minutes to enable opsonization.
THP-1 cells were stimulated to produce TNFα by the addition of 1 mg/ml opsonized zymosan. […] Each drug concentration was tested in triplicate wells. Plates were incubated at 37° C. for 24 hours.
After a 24-hour stimulation, supernatants were collected to quantify TNFα production. TNFα concentrations in the supernatants were determined by ELISA using recombinant human TNFα to obtain a standard curve A 96-well MaxiSorb plate was coated with 100 μL of anti-human TNFα Capture Antibody diluted in Coating Buffer (0.1M sodium carbonate pH 9 5) overnight at 4° C. The dilution of Capture Antibody used was lot-specific and was determined empirically. Capture antibody was then aspirated and the plate washed 3 times with Wash Buffer (PBS, 0.05% TWEEN-20) Plates were blocked for 1 hour at room temperature with 200 μL/well of Assay Diluent (PBS, 10% FCS pH 7.0). After blocking, plates were washed 3 times with Wash Buffer. […] Sample supernatants and standards were assayed in triplicate and were incubated at room temperature for 2 hours after addition to the plate coated with Capture Antibody. The plates were washed 5 times and incubated with 100 μL of Working Detector (biotinylated anti-human TNFα detection antibody+avidin-HRP) for 1 hour at room temperature. Following this incubation, the plates were washed 7 times and 100 μL of Substrate Solution (tetramethylbenzidine, H2O2) was added to plates and incubated for 30 minutes at room temperature. […] Mean absorbance was determined from triplicate data readings and the mean background was subtracted. TNFα concentration values were obtained from the standard curve.

The next test has as its system Smooth muscle cells. The test is described as follows: Proliferation of smooth muscle cells. The test is classed as cell-based. The settings on record: 72 hours, CYQUANT; read-out: IC50 proliferation of smooth muscle cells. Put shortly:
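Smooth muscle cells at 600 cells/well, exposed to paclitaxel (DMSO stocks 10^−8 to 10^−2 M) in triplicate for 72 h at 37 °C. Proliferation read with CyQUANT GR dye in lysis buffer.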

Structures are written as SMILES. Read-outs that look alike come from different tables or passages of the source.

For the molecule `Sc1ncc2[nH]cnc2n1` [2-mercaptopurine], the Minimum inhibitory concentration result with E. coli UB1005 C498 is reported as “N”.
Take `O=c1[nH]cc(F)c(=O)[nH]1` [5-fluorouracil]: the Minimum inhibitory concentration is 10^−7 Molar in the test on S. aureus ATCC25923 C622; 10^−4 Molar in the test with S. pyogenes C721; 10^−5 Molar in test [1]; 10^−7 Molar with S. epidermidis C621; 10^−6 Molar in the test on E. coli UB1005 C498; 10^−6 Molar in test [2].
Regarding `Sc1ncnc2nc[nH]c12` [6-mercaptopurine], the Minimum inhibitory concentration result with E. coli UB1005 C498 is “N”.
Consider `C/C(=N\N=C(N)N)c1cc(NC(=O)CCCCCCCCC(=O)Nc2cc(/C(C)=N/N=C(N)N)cc(/C(C)=N/N=C(N)N)c2)cc(/C(C)=N/N=C(N)N)c1` [CNI-1493], for which the IC50 in test [3] is 249 nM; in test [4], 0.02 nM; in test [5] it was 0.15 nM.
As for `CC[C@@]1(O)C(=O)OCc2c1cc1n(c2=O)Cc2cc3ccccc3nc2-1` [camptothecin], the Minimum inhibitory concentration result in the test on S. aureus ATCC25923 C622 is recorded as “N”; with S. pyogenes C721 it was “N”; in test [1], “N”; in the test with S. epidermidis C621, 10^−4 Molar; with E. coli UB1005 C498 it was “N”; in [2], “N”.
`N.N.[Cl][Pt][Cl]` [cisplatin]: the Minimum inhibitory concentration result with S. aureus ATCC25923 C622 is “N”; with S. pyogenes C721, “N”; in test [1], 10^−4 Molar; in the test on S. epidermidis C621, “N”; in the test with E. coli UB1005 C498 it was “N”; in test [2] it was “N”.
In the case of `Nc1ccn([C@@H]2O[C@H](CO)[C@@H](O)[C@@H]2O)c(=O)n1` [cytarabine], the Minimum inhibitory concentration entry (with S. aureus ATCC25923 C622; with S. pyogenes C721; in [1]; in the test on S. epidermidis C621; in the test with E. coli UB1005 C498; in [2]) was “N” each time. The IC50 in the test on Smooth muscle cells was 85 nM.
As for `COc1cccc2c1C(=O)c1c(O)c3c(c(O)c1C2=O)C[C@@](O)(C(=O)CO)C[C@@H]3O[C@H]1C[C@H](N)[C@H](O)[C@H](C)O1` [doxorubicin], the Minimum inhibitory concentration with S. aureus ATCC25923 C622 is on record as 10^−5 Molar; in the test on S. pyogenes C721, 10^−7 Molar; in test [1], 10^−5 Molar; with S. epidermidis C621 it was 10^−6 Molar; with E. coli UB1005 C498 it was 10^−4 Molar; in test [2], 10^−6 Molar. The IC50 in the test with Smooth muscle cells turned out to be 64 nM.
With `COc1cc([C@@H]2c3cc4c(cc3[C@@H](O[C@@H]3O[C@@H]5CO[C@@H](C)O[C@H]5[C@H](O)[C@H]3O)[C@H]3COC(=O)[C@H]23)OCO4)cc(OC)c1O` [etoposide], the Minimum inhibitory concentration in the test with S. aureus ATCC25923 C622 is 10^−5 Molar; with S. pyogenes C721, 10^−5 Molar; in [1] it was “N”; in the test with S. epidermidis C621 it was 10^−6 Molar; in the test on E. coli UB1005 C498, “N”; in test [2], 10^−5 Molar. Besides, in the test with Smooth muscle cells, the IC50 is 320 nM.
With `NC(=O)NO` [hydroxyurea], the Minimum inhibitory concentration entry is “N” in the test with S. aureus ATCC25923 C622; 10^−4 Molar with S. pyogenes C721; 10^−4 Molar in test [1]; “N” with S. epidermidis C621; “N” in the test on E. coli UB1005 C498; “N” in test [2].
In the case of `CN(Cc1cnc2nc(N)nc(N)c2n1)c1ccc(C(=O)N[C@@H](CCC(=O)O)C(=O)O)cc1` [methotrexate], the Minimum inhibitory concentration with S. aureus ATCC25923 C622 is 10^−5 Molar; with S. pyogenes C721, 10^−6 Molar; in [1], “N”; in the test on S. epidermidis C621 it was “N”; in the test with E. coli UB1005 C498 it was “N”; in test [2] it was 10^−6 Molar.
With `O=C1c2c(O)ccc(O)c2C(=O)c2c(NCCNCCO)ccc(NCCNCCO)c21` [mitoxantrone, 9,10-anthracenedione, 1,4-dihydroxy-5,8-bis((2-((2-hydroxyethyl)amino)ethyl)amino)-], the IC50 in test [4] (Homo sapiens) was 62 nM; with Smooth muscle cells, 1 nM. Moreover, the Minimum inhibitory concentration in the test on E. coli UB1005 C498 was 10^−5 Molar.
Regarding `Nc1ncnc2c1ccn2[C@@H]1O[C@H](CO)[C@@H](O)[C@H]1O` [tubercidin], the Minimum inhibitory concentration result (in the test with S. aureus ATCC25923 C622; in the test with S. pyogenes C721; in test [1]; in the test with S. epidermidis C621; with E. coli UB1005 C498; in test [2]) was “N” each time. Further, the IC50 in [4] came out at 56 nM; in the test with Smooth muscle cells, 30 nM.

The values are drawn from patent publication US20090226500A1, “SUTURES AND ANTI-SCARRING AGENTS” (Angiotech Pharmaceuticals, Inc, priority 2006, published 2009).
